Measured values taken from patent US10865194B2, “Therapeutically active bicyclic-sulphonamides and pharmaceutical compositions” (FONDAZIONE ISTITUTO ITALIANO DI TECNOLOGIA, priority 2017, dated 2020).
pIC50: −log10 of the molar value.

Target: T1, human NAAA (Homo sapiens, UniProt Q02083)
T1 construct: expressed in transfected cells; host or cells: HEK-293 (stably transfected, G418 selection); enzyme-enriched lysate
T1 sequence (Q02083 126-359 limits assumed): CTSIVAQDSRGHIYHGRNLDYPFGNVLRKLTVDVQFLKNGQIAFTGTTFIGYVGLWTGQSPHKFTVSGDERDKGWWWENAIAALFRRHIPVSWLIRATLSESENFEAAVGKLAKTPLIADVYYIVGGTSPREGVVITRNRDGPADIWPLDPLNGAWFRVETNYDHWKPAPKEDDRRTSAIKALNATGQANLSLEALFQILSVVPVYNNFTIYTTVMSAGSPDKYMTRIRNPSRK
T1 sequence (Q02083 29-125 limits assumed): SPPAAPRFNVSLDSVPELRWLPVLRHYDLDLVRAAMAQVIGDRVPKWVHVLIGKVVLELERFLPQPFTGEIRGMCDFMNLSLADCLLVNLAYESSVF
Test: In vitro human NAAA fluorogenic assay
Type: biochemical
Conditions: enzyme-enriched lysate of HEK-293 cells stably transfected with human NAAA; read-out: Activity h-NAAA Fluorogenic assay
Description: Human recombinant proteins were obtained from HEK-293 stable overexpressing NAAA cell lines. Cells were grown in Dulbecco's modified Eagle medium (DMEM) containing 10% FBS, 1% penicillin/streptomycin, 1% glutamine and 500 μg/mL G418. To obtain membrane preparation cells were scraped off with cold phosphate-buffered saline (PBS) and collected by centrifugation (300×g, 7 min, 4° C.). Cell pellet were stored at −80° C. until protein preparation.
In Vitro Human NAAA Assay
Preparation of Enzyme-Enriched Lysate (h-NAAA).
HEK-293 cells stably transfected with the human NAAA coding sequences were used as enzyme source. Cell pellets were suspended in 20 mM Tris HCl (pH 7.4) with 0.32 M sucrose, sonicated and centrifuged at 800×g for 30 min at 4° C. Supernatants were then ultracentrifuged at 12,000×g for 30 min at 4° C. Pellets were re-suspended in PBS buffer (pH 7.4) and subjected to three freeze-thaw cycles at −80° C. The suspension was finally ultracentrifuged at 105,000×g for 1 h at 4° C., supematants were collected, protein concentration was measured and samples aliquoted and stored at −80° C. until use.
The results are summarized in Table 3 as follows, wherein +: IC50>2 μM; ++: 1.0 μM<IC50<2 μM; +++: IC50<1 μM: […]

With Cc1n[nH]c(C)c1S(=O)(=O)N1C2CCC1CC(Oc1ccc(C(C)C)cc1)C2 [Example 18, (1R,3r,5S)-3-(4-Isopropylphenoxy)-8-[(3,5-dimethyl-1H-pyrazol-4-yl)sulfonyl]-8-azabicyclo[3.2.1]octane] the pIC50 was > 6.00.
Cc1n[nH]c(C)c1S(=O)(=O)N1C[C@H]2COC[C@@H](C1)C2Oc1cnccn1 (stereo partly drawn) [Example 49, (1R,5S,9s)-7-((3,5-Dimethyl-1H-pyrazol-4-yl)sulfonyl)-9-(pyrazin-2-yloxy)-3-oxa-7-azabicyclo[3.3.1]nonane] was tested, and the pIC50 was < 5.70.
For CCOCc1cnc(OC2CC3CCC(C2)N3S(=O)(=O)c2c(C)n[nH]c2C)cn1 [Example 41, (1R,3r,5S)-8-[(3,5-Dimethyl-1H-pyrazol-4-yl)sulfonyl]-3-[5-(ethoxymethyl)pyrazin-2-yl]oxy-8-azabicyclo[3.2.1]octane], the pIC50 was > 6.00.
In the case of CCc1ccc(OC2CC3CCC(C2)N3S(=O)(=O)c2c(C)n[nH]c2C)cc1 [Example 17, (1R,3r,5S)-3-(4-Ethylphenoxy)-8-[(3,5-dimethyl-1H-pyrazol-4-yl)sulfonyl]-8-azabicyclo[3.2.1]octane], the pIC50 was > 6.00.
In the case of Cc1n[nH]c(C)c1S(=O)(=O)N1C2CCC1CC(Oc1cccnn1)C2 [Example 37, (1R,3r,5S)-8-[(3,5-Dimethyl-1H-pyrazol-4-yl)sulfonyl]-3-pyridazin-3-yloxy-8-azabicyclo[3.2.1]octane], the pIC50 was < 5.70.
In the case of Cc1n[nH]c(C)c1S(=O)(=O)N1C2CCC1CC(Oc1cnc3ccccc3n1)C2 [Example 34, (1R,3r,5S)-8-[(3,5-Dimethyl-1H-pyrazol-4-yl)sulfonyl]-3-(2-quinoxalyloxy)-8-azabicyclo[3.2.1]octane], the pIC50 was < 5.70.
In the case of Cc1n[nH]c(C)c1S(=O)(=O)N1C2CCC1CC(Oc1ccc(-c3ccccc3)cc1)C2 [Example 06, (1R,3r,5S)-3-(4-phenylphenoxy)-8-[(3,5-dimethyl-1H-pyrazol-4-yl)sulfonyl]-8-azabicyclo[3.2.1]octane], the pIC50 was 5.70 to 6.00.
With Cc1ccc(OC2CC3CCC(C2)N3S(=O)(=O)c2c(C)n[nH]c2C)cc1 [Example 07, (1R,3r,5S)-3-(4-methylphenoxy)-8-[(3,5-dimethyl-1H-pyrazol-4-yl)sulfonyl]-8-azabicyclo[3.2.1]octane] the pIC50 was > 6.00.
With COc1ccc(O[C@H]2C[C@H]3CC[C@@H](C2)N3S(=O)(=O)c2c(C)n[nH]c2C)cc1 [Example 24, (1R,3r,5S)-3-(4-Methoxyphenoxy)-8-[(3,5-dimethyl-1H-pyrazol-4-yl)sulfonyl]-8-azabicyclo[3.2.1]octane] the pIC50 was > 6.00.
For Cc1ccc2oc(OC3CC4CCC(C3)N4S(=O)(=O)c3c(C)n[nH]c3C)nc2c1 [Example 38, (1R,3r,5S)-8-[(3,5-Dimethyl-1H-pyrazol-4-yl)sulfonyl]-3-(2-(5-methyl)-benzoxazoloxy)-8-azabicyclo[3.2.1]octane], the pIC50 was > 6.00.
For Cc1n[nH]c(C)c1S(=O)(=O)N1C2CCC1CC(Oc1ccc(CCC(C)C)cc1)C2 [Example 33, (1R,3r,5S)-3-[4-Isopentyl-phenoxy]-8-[(3,5-dimethyl-1H-pyrazol-4-yl)sulfonyl]-8-azabicyclo[3.2.1]octane], the pIC50 was > 6.00.
CCOCc1ccc(OC2CC3CCC(C2)N3S(=O)(=O)c2c(C)n[nH]c2C)cc1 [Example 35, (1R,3r,5S)-3-(4-Ethoxymethyl-phenoxy)-8-[(3,5-dimethyl-1H-pyrazol-4-yl)sulfonyl]-8-azabicyclo[3.2.1]octane] was tested, and the pIC50 was > 6.00.
In the case of Cc1n[nH]c(C)c1S(=O)(=O)N1[C@@H]2CC[C@H]1C[C@H](Oc1cccnn1)C2 [Example 43, (1R,3s,5S)-8-[(3,5-Dimethyl-1H-pyrazol-4-yl)sulfonyl]-3-pyridazin-3-yloxy-8-azabicyclo[3.2.1]octane], the pIC50 was < 5.70.
For Cc1n[nH]c(C)c1S(=O)(=O)N1C[C@H]2CC[C@@H](C1)C2Oc1cnccn1 (stereo partly drawn) [Example 50, (1R,5S,8r)-3-((3,5-Dimethyl-1H-pyrazol-4-yl)sulfonyl)-8-(pyrazin-2-yloxy)-3-azabicyclo[3.2.1]octane], the pIC50 was < 5.70.
With Cc1ccc(OC2CC3CCC(C2)N3S(=O)(=O)c2c(C)n[nH]c2C)c(F)c1 [Example 21, (1R,3r,5S)-3-(2-Fluoro-4-methylphenoxy)-8-[(3,5-dimethyl-1H-pyrazol-4-yl)sulfonyl]-8-azabicyclo[3.2.1]octane] the pIC50 was > 6.00.
For Cc1n[nH]c(C)c1S(=O)(=O)N1C[C@H]2COC[C@@H](C1)[C@H]2Oc1cnccn1 [Example 48, (1R,5S,9r)-7-((3,5-Dimethyl-1H-pyrazol-4-yl)sulfonyl)-9-(pyrazin-2-yloxy)-3-oxa-7-azabicyclo[3.3.1]nonane], the pIC50 was < 5.70.
For Cc1n[nH]c(C)c1S(=O)(=O)N1C2CCCC1CC(Oc1cnccn1)C2 [Example 44, (1R,3r,5S)-9-[(3,5-Dimethyl-1H-pyrazol-4-yl)sulfonyl]-3-(pyrazin-2-yloxy)-9-azabicyclo[3.3.1]nonane], the pIC50 was > 6.00.
In the case of Cc1n[nH]c(C)c1S(=O)(=O)N1C2CCC1CC(Oc1ccccn1)C2 [Example 25, (1R,3r,5S)-8-[(3,5-Dimethyl-1H-pyrazol-4-yl)sulfonyl]-3-(2-pyridiloxy)-8-azabicyclo[3.2.1]octane], the pIC50 was > 6.00.
For Cc1n[nH]c(C)c1S(=O)(=O)N1C2COCC1CC(Oc1cnccn1)C2 [Example 46, (1R,3s,5S)-9-[(3,5-Dimethyl-1H-pyrazol-4-yl)sulfonyl]-7-pyrazin-2-yloxy-3-oxa-9-azabicyclo[3.3.1]nonane], the pIC50 was < 5.70.
For Cc1n[nH]c(C)c1S(=O)(=O)N1C2CCC1CC(Oc1nc3c(C)cccc3o1)C2 [Example 28, (1R,3r,5S)-8-[(3,5-Dimethyl-1H-pyrazol-4-yl)sulfonyl]-3-(2-(4-methyl)-benzoxazoloxy)-8-azabicyclo[3.2.1]octane], the pIC50 was < 5.70.
With Cc1cccc(OC2CC3CCC(C2)N3S(=O)(=O)c2c(C)n[nH]c2C)c1 [Example 05, (1R,3s,5S)-3-(3-Methylphenoxy)-8-[(3,5-dimethyl-1H-pyrazol-4-yl)sulfonyl]-8-azabicyclo[3.2.1]octane] the pIC50 was < 5.70.
“(1R,3r,5S)-3-(4-Hexylphenoxy)-8-[(3,5-dimethyl-1H-pyrazol-4-yl)sulfonyl]-8-azabicyclo[3.2.1]octane [Example 19]” was tested, and the pIC50 was > 6.00.
For Cc1n[nH]c(C)c1S(=O)(=O)N1C2CCC1CC(Oc1ccccc1)C2 [Example 01, (1R,3s,5S)-8-[(3,5-Dimethyl-1H-pyrazol-4-yl)sulfonyl]-3-phenoxy-8-azabicyclo[3.2.1]octane], the pIC50 was > 6.00.
Cc1cccc(OC2CC3CCC(C2)N3S(=O)(=O)c2c(C)n[nH]c2C)c1 [Example 04, (1R,3r,5S)-3-(3-Methylphenoxy)-8-[(3,5-dimethyl-1H-pyrazol-4-yl)sulfonyl]-8-azabicyclo[3.2.1]octane] was tested, and the pIC50 was > 6.00.
Cc1n[nH]c(C)c1S(=O)(=O)N1C2CCC1CC(Oc1ccc(CO)cc1)C2 [Example 31, (1R,3r,5S)-3-(4-Hydroxymethyl-phenoxy)-8-[(3,5-dimethyl-1H-pyrazol-4-yl)sulfonyl]-8-azabicyclo[3.2.1]octane] was tested, and the pIC50 was > 6.00.
Cc1n[nH]c(C)c1S(=O)(=O)N1C2CCC1CC(Oc1ccc(C=O)cc1)C2 [Example 30, (1R,3r,5S)-3-(4-Formyl-phenoxy)-8-[(3,5-dimethyl-1H-pyrazol-4-yl)sulfonyl]-8-azabicyclo[3.2.1]octane] was tested, and the pIC50 was > 6.00.
In the case of Cc1ccc(OC2CC3CCC(C2)N3S(=O)(=O)c2c(C)n[nH]c2C)cc1 [Example 10, (1R,3s,5S)-3-(4-methylphenoxy)-8-[(3,5-dimethyl-1H-pyrazol-4-yl)sulfonyl]-8-azabicyclo[3.2.1]octane], the pIC50 was < 5.70.
In the case of CCCCc1ccc(OC2CC3CCC(C2)N3S(=O)(=O)c2c(C(C)C)n[nH]c2C)cc1 [Example 20, (1R,3r,5S)-3-(4-Butylphenoxy)-8-[(3-isopropyl-5-methyl-1H-pyrazol-4-yl)sulfonyl]-8-azabicyclo[3.2.1]octane], the pIC50 was > 6.00.
In the case of CCCOc1ccc(OC2CC3CCC(C2)N3S(=O)(=O)c2c(C)n[nH]c2C)cc1 [Example 26, (1R,3r,5S)-3-(4-Propoxyphenoxy)-8-[(3,5-dimethyl-1H-pyrazol-4-yl)sulfonyl]-8-azabicyclo[3.2.1]octane], the pIC50 was > 6.00.
Cc1n[nH]c(C)c1S(=O)(=O)N1C2CCC1CC(Oc1ccc3ccccc3n1)C2 [Example 22, (1R,3r,5S)-8-[(3,5-Dimethyl-1H-pyrazol-4-yl)sulfonyl]-3-(2-quinolyloxy)-8-azabicyclo[3.2.1]octane] was tested, and the pIC50 was < 5.70.
For Cc1n[nH]c(C)c1S(=O)(=O)N1C2CCC1CC(Oc1nc3ccccc3o1)C2 [Example 23, (1R,3r,5S)-8-[(3,5-Dimethyl-1H-pyrazol-4-yl)sulfonyl]-3-(2-benzoxazoloxy)-8-azabicyclo[3.2.1]octane], the pIC50 was > 6.00.
